The IC50 is the concentration that gives 50% inhibition.

Where two headings read alike, the source gives them in different places.

In data set [1] the target is VIM-1 (Pseudomonas aeruginosa (strain ATCC 15692 / DSM 22644 / CIP 104116 / JCM 14847 / LMG 12228 / 1C / PRS 101 / PAO1), UniProt A0A0F7KYQ8). The experiment in a line: biochemical. As to conditions: CCF2-FA substrate, 30 pM enzyme, 2 hours at 25° C. Put shortly: (§1)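 Class B activity is measured in the presence of compound by fluorescence with CCF2-FA after a 2-hour incubation at 25° C. IC50 is taken from a 4-parameter fit of semi-logarithmic dose-response data.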

Data set [2] has as its system Serratia marcescens expressing IMP-1 (CL5741). The data set is classed as cell-based. As to conditions: IMP-1 strain CL5741, with imipenem 1 μg/ml, 95% inhibition of growth. Put shortly:
(§2)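 Imipenem 1 μg/ml + inhibitor; MBL-expressing clinical strains in 1.1×CAMHB, inoculum from saline suspension diluted 1:100; 35° C, 22–24 h; absorbance read-out.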

The subject of data set [3] is Klebsiella pneumoniae expressing VIM-1 (IHMA599644). It counts as cell-based. To be noted: VIM-1 strain IHMA599644, with imipenem 1 μg/ml, 95% inhibition of growth. Put shortly:
as §2

The subject of data set [4] is Escherichia coli expressing NDM-1 (CLB30005, CLB30016). It counts as cell-based. To be noted: NDM-1 strain, with imipenem 1 μg/ml, 95% inhibition of growth. Put shortly:
as §2

Data set [5] has as its target NDM-1 (Klebsiella pneumoniae, UniProt C7C422). The experiment in a line: biochemical. It counts as biochemical. To be noted: fluorescence assay, CCF2-FA substrate, 1 pM enzyme, 2 hours at 25° C.; read-out: NDM-1 IC50. Put shortly: as §1
Data set [6] deals with IMP-1 (Serratia marcescens, UniProt P52699). Kind of data set: biochemical. To be noted: fluorescence assay, CCF2-FA substrate, 2 pM enzyme, 2 hours at 25° C.; read-out: IMP-1 IC50. The data set is classed as biochemical. Put shortly: as §1
For data set [7], the system named is Pseudomonas aeruginosa efflux+ (MB9798), IMP-1. It counts as cell-based. To be noted: concentration restoring susceptibility to imipenem at 2 μg/mL in the presence of a class A, C, D serine β-lactamase inhibitor closely related to relebactam. Put shortly: (§3)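 Steps: add fixed imipenem and/or ceftazidime (usually CLSI breakpoint) and fixed AmpC-directed class A/C inhibitor to microbroth MIC wells; titrate MBL inhibitor; record concentration regaining susceptibility for each PAO1-derived strain; divide efflux+ by efflux− value.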

Data set [8] concerns Pseudomonas aeruginosa efflux− (MB9799), IMP-1. The data set is classed as cell-based. To be noted: concentration restoring susceptibility to imipenem at 2 μg/mL in the presence of a class A, C, D serine β-lactamase inhibitor closely related to relebactam. Put shortly: as §3
Data set [9] deals with Pseudomonas aeruginosa MB9798 vs MB9799. To be noted: ratio MITC95 PA_9798/MITC95 PA_9799. Put shortly: as §3
Where [10] appears, read: fluorescence assay, read-out: VIM-1 IC50.

Chain of NDM-1 (C7C422 whole entry, looked up, species assumed): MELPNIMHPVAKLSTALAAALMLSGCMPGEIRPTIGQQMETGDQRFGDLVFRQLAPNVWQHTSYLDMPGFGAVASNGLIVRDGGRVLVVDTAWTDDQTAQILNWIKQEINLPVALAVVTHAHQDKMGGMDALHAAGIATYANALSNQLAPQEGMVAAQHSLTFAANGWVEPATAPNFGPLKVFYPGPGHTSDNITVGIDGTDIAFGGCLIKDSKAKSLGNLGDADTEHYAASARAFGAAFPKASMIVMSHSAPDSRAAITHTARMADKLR
Chain of IMP-1 (P52699 whole entry, looked up, species assumed): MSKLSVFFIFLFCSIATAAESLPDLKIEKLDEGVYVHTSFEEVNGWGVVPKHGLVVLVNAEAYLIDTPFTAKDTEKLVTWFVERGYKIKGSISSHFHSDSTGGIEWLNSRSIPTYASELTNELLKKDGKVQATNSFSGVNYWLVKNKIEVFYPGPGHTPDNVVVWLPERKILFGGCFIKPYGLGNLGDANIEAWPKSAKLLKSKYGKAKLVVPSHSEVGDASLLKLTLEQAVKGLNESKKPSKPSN

As to `NCc1nc2c(-c3ccc(S(=O)(=O)NC[C@H](O)CN)c(S(N)(=O)=O)c3-c3nn[nH]n3)cccc2[nH]1` [Example 299, (R)—N1-(3-amino-2-hydroxypropyl)-4-(2-(aminomethyl)-1H-benzo[d]imidazol-4-yl)-3-(2H-tetrazol-5-yl)benzene-1,2-disulfonamide], the IC50 amounted to 0.154 nM in [1] (VIM-1 IC50, fluorescence assay); 0.265 nM in [5]; 2.65 nM in [6]. Besides, the “Serratia marcescens MITC95” value in data set [2] was determined as 1.563 µM. Moreover, the “Klebsiella pneumoniae MITC95” value in data set [3] amounted to 1.563 µM. Also, the “Escherichia coli MITC95” value in data set [4] worked out at 0.7813 µM. Also, in data set [7], the “P. aeruginosa expressing IMP-1, efflux + (MB9798) MITC95” value is 0.7813 µM. The “P. aeruginosa expressing IMP-1, efflux − (MB9799) MITC95” value in data set [8] was found to be 0.7813 µM. Also, the Efflux ratio in data set [9] amounted to 1.00.

Turning to `NCc1nc2c(-c3ccc(S(=O)(=O)NC[C@H](O)CN)c(S(N)(=O)=O)c3-c3nn[nH]n3)cccc2s1` [Example 300, (R)—N1-(3-amino-2-hydroxypropyl)-4-(2-(aminomethyl)benzo[d]thiazol-4-yl)-3-(2H-tetrazol-5-yl)benzene-1,2-disulfonamide], the IC50 was 0.0678 nM in [1] (VIM-1 IC50, fluorescence assay); 0.0703 nM in data set [5]; 0.318 nM in data set [6]. The “Serratia marcescens MITC95” value in [2] is 1.563 µM. Also, in data set [3], the “Klebsiella pneumoniae MITC95” value was found to be 1.563 µM. The “Escherichia coli MITC95” value in data set [4] was determined as 1.563 µM. For the same molecule, the “P. aeruginosa expressing IMP-1, efflux + (MB9798) MITC95” value in data set [7] was found to be 0.7813 µM. Further, the “P. aeruginosa expressing IMP-1, efflux − (MB9799) MITC95” value in [8] amounted to 0.7813 µM. Moreover, the Efflux ratio in [9] came to 1.00.

As to `NC[C@@H](O)CNS(=O)(=O)c1ccc(-c2cccc3[nH]cnc23)c(-c2nn[nH]n2)c1S(N)(=O)=O` [Example 301, (R)-4-(1H-benzo[d]imidazol-4-yl)-N1-(3-amino-2-hydroxypropyl)-3-(2H-tetrazol-5-yl)-benzene-1,2-disulfonamide], the results for the IC50 in data set [1] (setting [10]), in data set [5] and in data set [6] were 0.0528 nM, 0.0163 nM and 0.129 nM, respectively. In addition, the “Serratia marcescens MITC95” value in [2] amounted to 0.3906 µM. Besides, the “Klebsiella pneumoniae MITC95” value in [3] was found to be 3.125 µM. Besides, the “Escherichia coli MITC95” value in data set [4] is 1.563 µM. The “P. aeruginosa expressing IMP-1, efflux + (MB9798) MITC95” value in data set [7] was 0.7813 µM. Moreover, the “P. aeruginosa expressing IMP-1, efflux − (MB9799) MITC95” value in data set [8] worked out at 0.7813 µM. The Efflux ratio in data set [9] worked out at 1.00.

As for `Cn1c(N)nc2c(-c3ccc(S(=O)(=O)NC[C@H](O)CN)c(S(N)(=O)=O)c3-c3nn[nH]n3)cccc21` [Example 302, (R)-4-(2-amino-1-methyl-1H-benzo[d]imidazol-4-yl)-N1-(3-amino-2-hydroxypropyl)-3-(2H-tetrazol-5-yl)benzene-1,2-disulfonamide], the IC50 in [1] (VIM-1 IC50, fluorescence assay) came to 0.141 nM; in [5], 0.0449 nM; in data set [6], 0.341 nM. Also, the “Serratia marcescens MITC95” value in data set [2] came out at 0.7813 µM. For the same molecule, in [3], the “Klebsiella pneumoniae MITC95” value worked out at 1.563 µM. For the same molecule, in [4], the “Escherichia coli MITC95” value amounted to 0.7813 µM. In addition, the “P. aeruginosa expressing IMP-1, efflux + (MB9798) MITC95” value in data set [7] was 0.7813 µM. Further, the “P. aeruginosa expressing IMP-1, efflux − (MB9799) MITC95” value in data set [8] is 0.7813 µM. For the same molecule, the Efflux ratio in data set [9] was 1.00.

`NC[C@@H](O)CNS(=O)(=O)c1ccc(-c2ccc(N)nc2)c(-c2nn[nH]n2)c1S(N)(=O)=O` [Example 303, (R)-N1-(3-amino-2-hydroxypropyl)-4-(6-aminopyridin-3-yl)-3-(2H-tetrazol-5-yl)benzene-1,2-disulfonamide]: the IC50 worked out at 0.169 nM in [1] (VIM-1 IC50, fluorescence assay); 0.255 nM in data set [5]; 0.536 nM in data set [6]. Further, in [2], the “Serratia marcescens MITC95” value is 0.5859 µM. Further, in [3], the “Klebsiella pneumoniae MITC95” value came out at 1.953 µM. For the same molecule, the “Escherichia coli MITC95” value in [4] is 0.2197 µM. For the same molecule, in [7], the “P. aeruginosa expressing IMP-1, efflux + (MB9798) MITC95” value is 0.7813 µM. Also, in data set [8], the “P. aeruginosa expressing IMP-1, efflux − (MB9799) MITC95” value came to 0.7813 µM. In addition, the Efflux ratio in data set [9] stood at 1.00.

Take `NC[C@H](O)CNS(=O)(=O)c1ccc(-c2cccc3[nH]c(N)nc23)c(-c2nn[nH]n2)c1S(N)(=O)=O` [Example 304, (S)-4-(2-amino-1H-benzo[d]imidazol-4-yl)-N1-(3-amino-2-hydroxypropyl)-3-(2H-tetrazol-5-yl)-benzene-1,2-disulfonamide]: the values for the IC50 in data set [1] (setting [10]), in [5] and in data set [6] were 0.208 nM, 0.0608 nM and 0.617 nM, respectively. Besides, the “Serratia marcescens MITC95” value in [2] stood at 0.7813 µM. In addition, in [3], the “Klebsiella pneumoniae MITC95” value is 1.563 µM. Also, in [4], the “Escherichia coli MITC95” value is 0.3906 µM. In data set [7], the “P. aeruginosa expressing IMP-1, efflux + (MB9798) MITC95” value was found to be 0.3906 µM. The “P. aeruginosa expressing IMP-1, efflux − (MB9799) MITC95” value in [8] stood at 0.7813 µM. In addition, the Efflux ratio in data set [9] is 0.50.

Turning to `NCc1nc2c(-c3ccc(S(=O)(=O)NC[C@@H](O)CN)c(S(N)(=O)=O)c3-c3nn[nH]n3)cccc2[nH]1` [Example 305, (S)—N1-(3-amino-2-hydroxypropyl)-4-(2-(aminomethyl)-1H-benzo[d]imidazole-4-yl)-3-(2H-tetrazol-5-yl)benzene-1,2-disulfonamide], the IC50 in [1] (VIM-1 IC50, fluorescence assay) was determined as 0.175 nM; in data set [5], 0.136 nM; in [6], 2.06 nM. Also, in [2], the “Serratia marcescens MITC95” value came to 1.172 µM. The “Klebsiella pneumoniae MITC95” value in data set [3] came out at 1.563 µM. Also, in data set [4], the “Escherichia coli MITC95” value was 1.172 µM. The “P. aeruginosa expressing IMP-1, efflux + (MB9798) MITC95” value in [7] was determined as 0.7813 µM. Also, in data set [8], the “P. aeruginosa expressing IMP-1, efflux − (MB9799) MITC95” value was found to be 0.7813 µM. Also, the Efflux ratio in data set [9] stood at 1.00.

With `NCc1nc2c(-c3ccc(S(=O)(=O)NC[C@@H](O)CN)c(S(N)(=O)=O)c3-c3nn[nH]n3)cccc2s1` [Example 306, (S)—N1-(3-amino-2-hydroxypropyl)-4-(2-(aminomethyl)benzo[d]thiazol-4-yl)-(2H-tetrazol-5-yl)benzene-1,2-disulfonamide], the IC50 came out at 0.0564 nM in [1] (VIM-1 IC50, fluorescence assay); 0.0587 nM in [5]; 0.293 nM in data set [6]. Also, the “Serratia marcescens MITC95” value in data set [2] was found to be 0.7813 µM. Moreover, the “Klebsiella pneumoniae MITC95” value in [3] is 1.563 µM. The “Escherichia coli MITC95” value in data set [4] was 0.7813 µM. In addition, in data set [7], the “P. aeruginosa expressing IMP-1, efflux + (MB9798) MITC95” value was 0.7813 µM. Further, in [8], the “P. aeruginosa expressing IMP-1, efflux − (MB9799) MITC95” value amounted to 0.7813 µM. Moreover, in data set [9], the Efflux ratio is on record as 1.00.

`NC[C@H](O)CNS(=O)(=O)c1ccc(-c2cccc3[nH]cnc23)c(-c2nn[nH]n2)c1S(N)(=O)=O` [Example 307, (S)-4-(1H-benzo[d]imidazol-4-yl)-N1-(3-amino-2-hydroxypropyl)-3-(2H-tetrazol-5-yl)-benzene-1,2-disulfonamide]: the figures for the IC50 in data set [1] (setting [10]), in [5] and in data set [6] were 0.113 nM, 0.0339 nM and 0.258 nM, respectively. The “Serratia marcescens MITC95” value in data set [2] is 1.563 µM. Moreover, the “Klebsiella pneumoniae MITC95” value in data set [3] was found to be 1.563 µM. Also, the “Escherichia coli MITC95” value in data set [4] amounted to 1.563 µM. The “P. aeruginosa expressing IMP-1, efflux + (MB9798) MITC95” value in data set [7] is 0.7813 µM. In data set [8], the “P. aeruginosa expressing IMP-1, efflux − (MB9799) MITC95” value amounted to 0.7813 µM. For the same molecule, the Efflux ratio in data set [9] is listed as 1.00.

For the origin of these results see US10221163B2 (priority 2015, dated 2019).
